Measured values from patent publication US8846698B2, “Pyrrolo[2,3-d]pyrimidine tropomysin-related kinase inhibitors” (Pfizer Limited, priority 2011, dated 2014).

Molecular target: TRKA (Homo sapiens (Human), UniProt P04629)
Assay: Isolated TRK enzyme assay (HTRF KinEASE-TK), TRKA
Type: biochemical
Conditions: read-out: Trka enzyme (IC50)

Chain of TRKA (P04629 441-796): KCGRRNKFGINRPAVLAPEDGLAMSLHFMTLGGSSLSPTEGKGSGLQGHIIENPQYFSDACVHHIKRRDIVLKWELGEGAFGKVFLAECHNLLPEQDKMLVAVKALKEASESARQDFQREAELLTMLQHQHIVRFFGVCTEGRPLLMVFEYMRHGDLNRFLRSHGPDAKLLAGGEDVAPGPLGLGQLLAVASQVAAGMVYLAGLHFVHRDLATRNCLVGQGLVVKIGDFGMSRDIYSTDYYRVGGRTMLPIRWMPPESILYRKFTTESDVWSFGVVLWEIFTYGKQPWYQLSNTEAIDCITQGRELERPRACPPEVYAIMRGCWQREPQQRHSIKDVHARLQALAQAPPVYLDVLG

| SMILES | IC50 [nM] |
| --- | --- |
| CCc1nc(C)c(C(=O)Nc2cncc(C(=O)c3cn(C(C)C)c4ncncc34)c2)o1 [Example 484, 2-Ethyl-4-methyl-oxazole-5-carboxylic acid [5-(7-isopropyl-7H-pyrrolo[2,3-d]pyrimidine-5-carbonyl)-pyridin-3-yl]-amide] | 192 |
| Cn1cc(C(=O)c2cncc(NC(=O)Nc3cccc(C(F)(F)F)c3)c2)c2cncnc21 [Example 295, 1-{5-[(7-methyl-7H-pyrrolo[2,3-d]pyrimidin-5-yl)carbonyl]pyridin-3-yl}-3-[3-(trifluoromethyl)phenyl]urea] | 31.9 |
| Cn1cc(C(=O)c2cncc(NC(=O)Nc3ccc(Cl)cc3)c2)c2cncnc21 [Example 293, 1-(4-chlorophenyl)-3-{5-[(7-methyl-7H-pyrrolo[2,3-d]pyrimidin-5-yl)carbonyl]pyridin-3-yl}urea] | 20.2 |
| Cc1cccc(CC(=O)Nc2cncc(C(=O)c3cn(C)c4ncncc34)c2)c1 [Example 168, 2-(3-methylphenyl)-N-{5-[(7-methyl-7H-pyrrolo[2,3-d]pyrimidin-5-yl)carbonyl]pyridin-3-yl}acetamide] | 702 |
| CC(C)n1cc(C(=O)c2cncc(NC(=O)Cc3cccc(CO)c3)c2)c2cncnc21 [Example 75, 2-[3-(hydroxymethyl)phenyl]-N-{5-[(7-isopropyl-7H-pyrrolo[2,3-d]pyrimidin-5-yl)carbonyl]pyridin-3-yl}acetamide] | 567 |
| Cc1nc(C)n(CC(=O)Nc2cncc(C(=O)c3cn(C(C)C)c4ncncc34)c2)n1 [Example 358, 2-(3,5-Dimethyl-1,2,4-triazol-1-yl)-N-[5-(7-isopropyl-7H-pyrrolo[2,3-d]pyrimidine-5-carbonyl)-pyridin-3-yl]-acetamide] | 9800 |
| O=C(Cc1ccc(Cl)cn1)Nc1cncc(C(=O)c2cn(C(CO)CO)c3ncncc23)c1 [Example 282, 2-(5-chloropyridin-2-yl)-N-[5-({7-[2-hydroxy-1-(hydroxymethyl)ethyl]-7H-pyrrolo[2,3-d]pyrimidin-5-yl}carbonyl)pyridin-3-yl]acetamide] | 1010 |
| CC(C)(CO)n1cc(C(=O)c2cncc(NC(=O)Cc3ccc4cccnc4c3)c2)c2cncnc21 [Example 228, N-(5-{[7-(2-hydroxy-1,1-dimethylethyl)-7H-pyrrolo[2,3-d]pyrimidin-5-yl]carbonyl}pyridin-3-yl)-2-quinolin-7-ylacetamide] | 14.9 |
| CC(C)n1cc(C(=O)c2cncc(NC(=O)c3ccnn3C)c2)c2cncnc21 [Example 397, 2-Methyl-2H-pyrazole-3-carboxylic acid [5-(7-isopropyl-7H-pyrrolo[2,3-d]pyrimidine-5-carbonyl)-pyridin-3-yl]-amide] | 9800 |
| CC(C)n1cc(C(=O)c2cncc(NC(=O)Cc3ncccn3)c2)c2cncnc21 [Example 165, N-{5-[(7-isopropyl-7H-pyrrolo[2,3-d]pyrimidin-5-yl)carbonyl]pyridin-3-yl}-2-pyrimidin-2-ylacetamide] | 3400 |
| CC(C)n1cc(C(=O)c2c[nH]c(=O)c(NC(=O)COc3ccccc3OC(F)(F)F)c2)c2cncnc21 [Example 585, N-(2-oxo-5-{[7-(propan-2-yl)-7H-pyrrolo[2,3-d]pyrimidin-5-yl]carbonyl}-1,2-dihydropyridin-3-yl)-2-[2-(trifluoromethoxy)phenoxy]acetamide] | 36.7 |
| COCC(C)(C)n1cc(C(=O)c2cncc(NC(=O)Cc3ccc(Cl)cn3)c2)c2cnc(N)nc21 [Example 547, N-{5-[2-Amino-7-(2-methoxy-1,1-dimethyl-ethyl)-7H-pyrrolo[2,3-d]pyrimidine-5-carbonyl]-pyridin-3-yl}-2-(5-chloro-pyridin-2-yl)-acetamide] | 3.88 |
| CC(C)n1cc(C(=O)c2cncc(NC(=O)Cc3ccn4ccnc4c3)c2)c2cncnc21 [Example 85, 2-imidazo[1,2-a]pyridin-7-yl-N-{5-[(7-isopropyl-7H-pyrrolo[2,3-d]pyrimidin-5-yl)carbonyl]pyridin-3-yl}acetamide] | 70.8 |
